Results reported in article PMC7523331, “Curcumin derivative C212 inhibits Hsp90 and eliminates both growing and quiescent leukemia cells in deep dormancy” (Cell Communication and Signaling : CCS, 2020).

Molecular target: T1, Hsp90
T1 construct: gene HSP82; C-terminus of Hsp90 (C-Hsp90, 629–732, 15 kDa), His-tagged
Test: intrinsic fluorescence quenching titration with purified Hsp90 domains
Format: binding
From the text: intrinsic fluorescence quenching titration with purified Hsp90 domains on Hsp90 | Dissociation constant (Kd) values of C212 with different Hsp90 domains

Kd: 15.3 ± 1.2 µM
SMILES: O=C(/C=C/c1cccnc1)C(Cc1ccccc1Cl)C(=O)/C=C/c1cccnc1 [C212, (1E,6E)-4-(2-Chlorinebenzyl)-1,7-bis(3-pyridine)-1,6-heptadiene-3,5-dione]
